# Source: ChEMBL document CHEMBL1151061, “Synthesis and inhibitory effects of bivalent sialyl lewis X analogs at preventing cell adhesion” (Bioorg Med Chem Lett, 1997)
# Biological target: T1, E-selectin (Homo sapiens, UniProt P16581)
# T1 sequence (P16581 whole entry): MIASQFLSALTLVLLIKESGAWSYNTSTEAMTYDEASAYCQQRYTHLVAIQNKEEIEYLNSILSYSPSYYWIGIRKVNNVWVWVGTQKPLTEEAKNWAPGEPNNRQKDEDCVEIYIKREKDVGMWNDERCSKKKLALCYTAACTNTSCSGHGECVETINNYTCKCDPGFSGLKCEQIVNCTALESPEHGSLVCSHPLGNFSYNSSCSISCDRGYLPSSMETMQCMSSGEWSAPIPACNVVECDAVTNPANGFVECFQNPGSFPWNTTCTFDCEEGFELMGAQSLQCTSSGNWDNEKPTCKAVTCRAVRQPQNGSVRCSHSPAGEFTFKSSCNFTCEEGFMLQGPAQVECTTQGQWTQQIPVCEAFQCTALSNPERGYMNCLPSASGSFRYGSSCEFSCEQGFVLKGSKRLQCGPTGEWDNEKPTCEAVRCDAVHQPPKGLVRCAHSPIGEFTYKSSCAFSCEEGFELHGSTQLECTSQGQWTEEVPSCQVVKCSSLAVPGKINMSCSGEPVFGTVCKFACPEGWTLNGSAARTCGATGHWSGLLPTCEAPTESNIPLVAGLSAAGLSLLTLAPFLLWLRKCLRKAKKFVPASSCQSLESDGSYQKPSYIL
# Experiment: Compound was evaluated for its inhibitory activity against adhesion of HL-60(human promyelocytic leukemia cells) to recombinant human soluble E-selectin (rhsE).
row,IC50,Structure (SMILES)
1,30 µM,CC(=O)N[C@@H]1[C@@H]([C@H](O)[C@H](O)CO)O[C@](O[C@H]2[C@@H](O)[C@@H](O[C@@H]3[C@@H](O[C@H]4O[C@H](C)[C@H](O)[C@@H](O)[C@H]4O)[C@@H](NC(=O)c4ccc5ccccc5c4)[C@@H](OCc4cccc(CO[C@@H]5O[C@@H](CO)[C@@H](O[C@@H]6O[C@@H](CO)[C@H](O)[C@H](O[C@]7(C(=O)O)C[C@@H](O)[C@@H](NC(C)=O)[C@H]([C@H](O)[C@H](O)CO)O7)[C@@H]6O)[C@H](O[C@@H]6O[C@@H](C)[C@@H](O)[C@H](O)[C@@H]6O)[C@@H]5NC(=O)c5ccc6ccccc6c5)c4)O[C@@H]3CO)O[C@H](CO)[C@H]2O)(C(=O)O)C[C@@H]1O
2,41 µM,COC(=O)N[C@@H]1C(O)C(OC2C(O)[C@H](O[C@@H]3C(CO)O[C@@H](OCCCO[C@@H]4CCC[C@H](OCCCO[C@@H]5OC(CO)[C@@H](O[C@@H]6OC(CO)[C@H](O)C(OC7C(O)[C@@H](NC(=O)OC)C([C@H](O)[C@H](O)CO)O[C@H]7C(=O)O)C6O)C(O[C@@H]6OC(C)[C@H](O)C(O)C6O)C5Nc5ccc6ccccc6c5)C4)C(Nc4ccc5ccccc5c4)C3O[C@@H]3OC(C)[C@H](O)C(O)C3O)OC(CO)[C@@H]2O)[C@H](C(=O)O)OC1[C@H](O)[C@H](O)CO (stereo partly drawn)
3,37 µM,CC(=O)N[C@@H]1[C@@H]([C@H](O)[C@H](O)CO)O[C@](O[C@H]2[C@@H](O)[C@@H](O[C@@H]3[C@@H](O[C@H]4O[C@H](C)[C@H](O)[C@@H](O)[C@H]4O)[C@@H](NC(=O)c4ccc5ccccc5c4)[C@@H](OCCCOc4cccc(OCCCO[C@@H]5O[C@@H](CO)[C@@H](O[C@@H]6O[C@@H](CO)[C@H](O)[C@H](O[C@]7(C(=O)O)C[C@@H](O)[C@@H](NC(C)=O)[C@H]([C@H](O)[C@H](O)CO)O7)[C@@H]6O)[C@H](O[C@@H]6O[C@@H](C)[C@@H](O)[C@H](O)[C@@H]6O)[C@@H]5NC(=O)c5ccc6ccccc6c5)c4)O[C@@H]3CO)O[C@H](CO)[C@H]2O)(C(=O)O)C[C@@H]1O
4,200 µM,CC(=O)N[C@H]1[C@H]([C@H](O)[C@H](O)CO)O[C@@](O[C@@H]2[C@H](O)[C@H](O[C@H]3[C@H](O[C@@H]4O[C@@H](C)[C@@H](O)[C@H](O)[C@@H]4O)[C@H](NC(=O)c4ccc5ccccc5c4)[C@H](OCCCc4cccc(CCCO)c4)O[C@H]3CO)O[C@@H](CO)[C@@H]2O)(C(=O)O)C[C@H]1O
5,32 µM,CO[C@H]1O[C@@H](O[C@H]2[C@H](O[C@@H]3O[C@@H](C)[C@@H](O)[C@@H](O)[C@@H]3O)[C@@H](NC(=O)c3ccc4ccccc4c3)[C@H](OCCCc3cccc(CCCO[C@@H]4O[C@H](CO)[C@@H](O[C@@H]5O[C@H](OC)[C@H](O)[C@H](O[C@]6(C(=O)O)C[C@H](O)[C@@H](NC(C)=O)[C@H]([C@H](O)[C@H](O)CO)O6)[C@H]5O)[C@H](O[C@@H]5O[C@@H](C)[C@@H](O)[C@@H](O)[C@@H]5O)[C@H]4NC(=O)c4ccc5ccccc5c4)c3)O[C@@H]2CO)[C@H](O)[C@@H](O[C@]2(C(=O)O)C[C@H](O)[C@@H](NC(C)=O)[C@H]([C@H](O)[C@H](O)CO)O2)[C@H]1O
6,49 µM,COC(=O)N[C@@H]1C(O)C(OC2C(O)[C@H](O[C@@H]3C(CO)O[C@@H](OCCCO[C@H]4CCC[C@H](OCCCO[C@@H]5OC(CO)[C@@H](O[C@@H]6OC(CO)[C@H](O)C(OC7C(O)[C@@H](NC(=O)OC)C([C@H](O)[C@H](O)CO)O[C@H]7C(=O)O)C6O)C(O[C@@H]6OC(C)[C@H](O)C(O)C6O)C5Nc5ccc6ccccc6c5)C4)C(Nc4ccc5ccccc5c4)C3O[C@@H]3OC(C)[C@H](O)C(O)C3O)OC(CO)[C@@H]2O)[C@H](C(=O)O)OC1[C@H](O)[C@H](O)CO (stereo partly drawn)
7,1500 µM,CCO[C@@H]1O[C@@H](CO)[C@@H](O[C@@H]2O[C@@H](CO)[C@H](O)[C@H](O[C@]3(C(=O)O)C[C@@H](O)[C@@H](NC(C)=O)[C@H]([C@H](O)[C@H](O)CO)O3)[C@@H]2O)[C@H](O[C@@H]2O[C@@H](C)[C@@H](O)[C@H](O)[C@@H]2O)[C@@H]1NC(C)=O
8,60 µM,CC(=O)N[C@@H]1[C@@H]([C@H](O)[C@H](O)CO)O[C@](O[C@H]2[C@@H](O)[C@@H](O[C@@H]3[C@@H](O[C@H]4O[C@H](C)[C@H](O)[C@@H](O)[C@H]4O)[C@@H](NC(=O)c4ccc5ccccc5c4)[C@@H](OCCc4cccc(CCO[C@@H]5O[C@@H](CO)[C@@H](O[C@@H]6O[C@@H](CO)[C@H](O)[C@H](O[C@]7(C(=O)O)C[C@@H](O)[C@@H](NC(C)=O)[C@H]([C@H](O)[C@H](O)CO)O7)[C@@H]6O)[C@H](O[C@@H]6O[C@@H](C)[C@@H](O)[C@H](O)[C@@H]6O)[C@@H]5NC(=O)c5ccc6ccccc6c5)c4)O[C@@H]3CO)O[C@H](CO)[C@H]2O)(C(=O)O)C[C@@H]1O
